Data published in patent US10287305B2, “Substituted piperidine compound and use thereof” (Takeda Pharmaceutical Company Limited, priority 2016, dated 2019).

Biological target: human orexin type 2 receptor (hOX2R) (Homo sapiens (Human), UniProt O43614)
Experiment: Measurement of orexin type 2 receptor agonist activity (Experimental Example 2-1, FLIPR TETRA, intracellular Ca2+)
Assay type: cell-based
Conditions: CHO dhfr- cells expressing hOX2R; for Emax: read-out: Emax (%); for Emax at 30 µM: value at 30 uM concentration, orexin B as full agonist = 100%
Description: To obtain a cell clone stably expressing human orexin type 2 receptor, human orexin type 2 receptor cDNA was inserted into pcDNA3.1(+) plasmid vector (Invitrogen), and a plasmid DNA for expression of human orexin type 2 receptor (pcDNA3.1(+)/hOX2R) was cloned. The plasmid DNA was introduced into CHO-dhfr cell by an electroporation method, and human orexin type 2 receptor expressing clone cells were obtained by limiting dilution method by using G418 drug resistance as a selection marker.
Chinese hamster ovary (CHO) dhfr-cells forcibly expressing human orexin type 2 receptor (hOX2R) were seeded in each well of Black clear bottom plate (384 wells) (Becton, Dickinson and Company) by 10,000 cells, and cultured for 16 hr in an MEM-alpha (Nikken-Bio Co., Ltd.) medium containing 100 U/ml penicillin, 100 μg/ml streptomycin, […] G418 (all above Invitrogen), and 10% fetal calf serum (Thermo), under the conditions of 37° C., 5% CO2. […] A test compound was dissolved in dimethyl sulfoxide to 10 mM, and then diluted with assay buffer 2 (20 mM HEPES, Hanks' balanced salt solution (Invitrogen), 0.1% bovine serum albumin). For the reaction, a test compound solution (10 μL) was added using Fluorescent Imaging Plate Reader TETRA (FLIPR TETRA; manufactured by Molecular Devices), a fluorescence value (excitation wavelength 488 nm, measurement wavelength 570 nm) of each well was measured every one second for 1 min, and the agonist activity was determined using the area of the fluorescence value as an indicator of intracellular Ca^2+ concentration.

[1] = agonist activity, 10 nM human orexin B = 100%

Sequence of human orexin type 2 receptor (hOX2R) (O43614 whole entry): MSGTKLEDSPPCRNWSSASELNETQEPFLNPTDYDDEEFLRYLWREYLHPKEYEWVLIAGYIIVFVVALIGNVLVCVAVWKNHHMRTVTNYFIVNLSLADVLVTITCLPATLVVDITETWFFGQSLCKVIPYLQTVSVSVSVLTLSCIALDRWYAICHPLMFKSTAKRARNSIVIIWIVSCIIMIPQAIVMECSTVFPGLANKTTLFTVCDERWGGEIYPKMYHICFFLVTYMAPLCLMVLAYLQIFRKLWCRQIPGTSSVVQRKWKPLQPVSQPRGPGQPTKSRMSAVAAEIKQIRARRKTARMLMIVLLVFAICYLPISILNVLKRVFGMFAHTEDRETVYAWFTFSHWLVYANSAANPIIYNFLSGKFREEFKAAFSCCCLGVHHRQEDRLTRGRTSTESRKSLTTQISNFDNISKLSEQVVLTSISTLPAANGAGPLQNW

Row | EC50 (FLIPR TETRA, Fluo-4AM) | Emax (FLIPR TETRA, Fluo-4AM) | EC50 [1] | Emax at 30 µM | SMILES
1 | 0.03 µM | 104% | – | – | CS(=O)(=O)N[C@H]1CCCN(C(=O)C2CC2)[C@H]1COC1CCN(c2ncccn2)CC1 (relative stereo) [Example 196, N-(cis-1-(cyclopropylcarbonyl)-2-(((1-(pyrimidin-2-yl)piperidin-4-yl)oxy)methyl)piperidin-3-yl)methanesulfonamide]
2 | 0.0026 µM | 97% | – | – | COC(=O)N1CCC[C@H](NS(C)(=O)=O)[C@@H]1CO[C@H]1CC[C@@H](c2cc(F)cc(F)c2F)CC1 [Example 244, methyl (2R,3S)-3-((methylsulfonyl)amino)-2-(((cis-4-(2,3,5-trifluorophenyl)cyclohexyl)oxy)methyl)piperidine-1-carboxylate]
3 | – | – | 0.3 µM | 103% | CC(=O)N1CCC[C@H](NS(=O)(=O)C(C)C)[C@@H]1CO[C@H]1CC[C@@H](C(C)C)CC1 (relative stereo) [Example 76, N-(cis-1-acetyl-2-(((cis-4-isopropylcyclohexyl)oxy)methyl)piperidin-3-yl)propane-2-sulfonamide]
4 | 2.9 µM | 93% | – | – | CC(=O)N1CCC[C@H](NS(C)(=O)=O)[C@@H]1CO[C@H]1CC[C@@H](c2cccc(C#N)c2)CC1 (relative stereo) [Example 252, N-(cis-1-acetyl-2-(((cis-4-(3-cyanophenyl)cyclohexyl)oxy)methyl)piperidin-3-yl)methanesulfonamide]
5 | 3.8 µM | 80% | – | – | COC(=O)N1CCC[C@H](NS(C)(=O)=O)[C@@H]1COC1CCN(c2ccccc2C(F)(F)F)CC1 (relative stereo) [Example 165, methyl cis-3-((methylsulfonyl)amino)-2-(((1-(2-(trifluoromethyl)phenyl)piperidin-4-yl)oxy)methyl)piperidine-1-carboxylate]
6 | – | – | 0.013 µM | 112% | CC(C)[C@H]1CC[C@@H](OC[C@H]2[C@@H](NS(C)(=O)=O)CCCN2C(=O)NC2CC2)CC1 (relative stereo) [Example 99, cis-N-cyclopropyl-2-(((cis-4-isopropylcyclohexyl)oxy)methyl)-3-((methylsulfonyl)amino)piperidine-1-carboxamide]
7 | – | – | – | 101% | CC(=O)OCC(=O)N1CCC[C@H](NS(C)(=O)=O)[C@@H]1CO[C@H]1CC[C@@H](C(C)C)CC1 (relative stereo) [Example 47, 2-(cis-2-(((cis-4-isopropylcyclohexyl)oxy)methyl)-3-((methylsulfonyl)amino)piperidin-1-yl)-2-oxoethyl acetate]
8 | 0.088 µM | 105% | – | – | CCNC(=O)N1CCC[C@H](NS(C)(=O)=O)[C@@H]1CO[C@H]1CC[C@@H](c2cccc(C#N)c2)CC1 (relative stereo) [Example 254, cis-2-(((cis-4-(3-cyanophenyl)cyclohexyl)oxy)methyl)-N-ethyl-3-((methylsulfonyl)amino)piperidine-1-carboxamide]
9 | 0.017 µM | 106% | – | – | CS(=O)(=O)N[C@H]1CCCN(C(=O)CC#N)[C@H]1CO[C@H]1CC[C@@H](c2ccccc2)CC1 [Example 180, N-((2R,3S)-1-(cyanoacetyl)-2-(((cis-4-phenylcyclohexyl)oxy)methyl)piperidin-3-yl)methanesulfonamide]
10 | – | – | 0.044 µM | 106% | CC(=O)N1CCC[C@H](NS(C)(=O)=O)[C@@H]1CO[C@H]1CC[C@@H](c2ccccc2)CC1 [Example 4, N-((2R,3S)-1-acetyl-2-(((cis-4-phenylcyclohexyl)oxy)methyl)piperidin-3-yl)methanesulfonamide]
11 | 0.026 µM | 98% | – | – | COc1ccccc1[C@H]1CC[C@@H](OC[C@H]2[C@@H](NS(C)(=O)=O)CCCN2C(C)=O)CC1 [Example 291, N-((2R,3S)-1-acetyl-2-(((cis-4-(2-methoxyphenyl)cyclohexyl)oxy)methyl)piperidin-3-yl)methanesulfonamide]
12 | 0.49 µM | 107% | – | – | COC(=O)N1CCC[C@H](NS(C)(=O)=O)[C@@H]1COC1CCN(c2ncccn2)CC1 (relative stereo) [Example 151, methyl cis-3-((methylsulfonyl)amino)-2-(((1-(pyrimidin-2-yl)piperidin-4-yl)oxy)methyl)piperidine-1-carboxylate]
13 | 0.25 µM | 102% | – | – | CCNC(=O)N1CCC[C@H](NS(C)(=O)=O)[C@@H]1COC1CCN(c2ccccc2F)CC1 (relative stereo) [Example 195, cis-N-ethyl-2-(((1-(2-fluorophenyl)piperidin-4-yl)oxy)methyl)-3-((methylsulfonyl)amino)piperidine-1-carboxamide]
14 | – | – | 0.0066 µM | 105% | CC(=O)N1CCC[C@H](NS(C)(=O)=O)[C@@H]1CO[C@H]1CC[C@@H](c2c(F)cccc2F)CC1 [Example 14, N-((2R,3S)-1-acetyl-2-(((cis-4-(2,6-difluorophenyl)cyclohexyl)oxy)methyl)piperidin-3-yl)methanesulfonamide]
15 | 0.021 µM | 105% | – | – | CCS(=O)(=O)N[C@H]1CCCN(C(=O)OC)[C@H]1CO[C@H]1CC[C@@H](c2ccccc2)CC1 (relative stereo) [Example 301, methyl cis-3-((ethylsulfonyl)amino)-2-(((cis-4-phenylcyclohexyl)oxy)methyl)-piperidine-1-carboxylate]
16 | – | – | 0.002 µM | 114% | COC(=O)N1CCC[C@H](NS(C)(=O)=O)[C@@H]1CO[C@H]1CC[C@@H](c2cc(F)ccc2F)CC1 [Example 11, methyl (2R,3S)-2-(((cis-4-(2,5-difluorophenyl)cyclohexyl)oxy)methyl)-3-((methylsulfonyl)amino)piperidine-1-carboxylate]
17 | – | – | 0.013 µM | 97% | CC(=O)N1CCC[C@H](NS(=O)(=O)N(C)C)[C@@H]1CO[C@H]1CC[C@@H](c2ccccc2)CC1 (relative stereo) [Example 111, N′-(cis-1-acetyl-2-(((cis-4-phenylcyclohexyl)oxy)methyl)piperidin-3-yl)-N,N-dimethylsulfuric diamide]
18 | – | – | 0.77 µM | 97% | CS(=O)(=O)N[C@H]1CCCN[C@H]1CO[C@H]1CC[C@@H](c2ccccc2F)CC1 (relative stereo) [Example 115, N-(cis-2-(((cis-4-(2-fluorophenyl)cyclohexyl)oxy)methyl)piperidin-3-yl)methanesulfonamide]
19 | 0.13 µM | 93% | – | – | CS(=O)(=O)N[C@H]1CCCN(C(=O)OCC(F)(F)F)[C@H]1COC1CCN(c2ncccn2)CC1 (relative stereo) [Example 286, 2,2,2-trifluoroethyl cis-3-((methylsulfonyl)amino)-2-(((1-(pyrimidin-2-yl)piperidin-4-yl)oxy)methyl)piperidine-1-carboxylate]
20 | – | – | 0.093 µM | 99% | CCCC(=O)N1CCC[C@H](NS(C)(=O)=O)[C@@H]1CO[C@H]1CC[C@@H](C(C)C)CC1 (relative stereo) [Example 35, N-(cis-1-butyryl-2-(((cis-4-isopropylcyclohexyl)oxy)methyl)piperidin-3-yl)methanesulfonamide]
21 | – | – | 0.012 µM | 102% | CC(=O)N1CCC[C@H](NS(C)(=O)=O)[C@@H]1CO[C@H]1CC[C@@H](c2cccc(F)c2F)CC1 [Example 19, N-((2R,3S)-1-acetyl-2-(((cis-4-(2,3-difluorophenyl)cyclohexyl)oxy)methyl)piperidin-3-yl)methanesulfonamide]
